# Assays:
# [1] = tested on: P. aeruginosa PAO1.lux association with A549 cells; experiment: Cell attachment assay, PAO1.lux to A549 cells; format: cell-based, Pseudomonas aeruginosa; details: MOI of 10, FIG. 4, FIG. 9B
# Protocol: Anti-Psl antibodies were added to a confluent monolayer of A549 cells (an adenocarcinoma human alveolar basal epithelial cell line) grown in opaque 96-well plates (Nunc Nunclon Delta). Log-phase luminescent P. aeruginosa PAO1 strain (PAO1.lux) was added at an MOI of 10. After incubation of PAO1.lux with A549 cells at 37° C. for 1 hour, the A549 cells were washed, followed by addition of LB+0.5% glucose. Bacteria were quantified following a brief incubation at 37° C. as performed in the OPK assay described in Example 2. Measurements from wells without A549 cells were used to correct for non-specific binding.
# [2] = tested on: Psl (enriched carbohydrate purified from PAO1ΔwbpL/algD/pelA); experiment: Psl capture binding assay (FORTEBIO OCTET 384); set-up: species or system Pseudomonas aeruginosa; details: FIG. 3K
# Protocol: To confirm that all of the antibodies bound to the same antigen, a Psl capture binding assay was performed using a FORTEBIO® OCTET® 384 instrument as described above. The antigen was proteinase K-treated enriched carbohydrate purified from PAO1ΔwbpL/algD/pelA (O-antigen-, alginate- and Pel exopolysaccharide-deficient). Individual antibodies were bound to aminopropylsilane biosensors followed by blocking and the addition of the enriched carbohydrate antigen. After washing to remove unbound antigen, binding of unlabelled mAbs to captured antigen was assessed.
# P. aeruginosa PAO10 LPS = experiment: Endotoxemia (LPS challenge) model; format: in vivo, C57Bl/6 mice; details: control mice dosed with unconjugated mAb
# Protocol: In particular, C57Bl/6 mice (10 per group) were dosed i.p. with mAb or PMB-mAb conjugate 6 h prior to challenge with P. aeruginosa PAO10 LPS (Sigma) and D-galactosamine. PMB control was dosed i.p. 2 h prior to challenge at 0.2 mg/kg and typically provides 80-100% protection. Control mice dosed with unconjugated CAM-003 all died within 18 h.
# TM conjugates were dosed at 45, 15 and 5 mg/kg.
# [3] = tested on: luminescent P. aeruginosa serogroup 05 strain (PAO1.lux); experiment: Opsonophagocytosis killing (OPK) assay, PAO1.lux; format: cell-based, Pseudomonas aeruginosa
# Protocol: (§1) This example describes the evaluation of prioritized human IgG1 antibodies to promote OPK of P. aeruginosa. […] OPK assays were performed as described in (DiGiandomenico, A., et al., Infect Immun 72, 7012-7021 (2004)), with modifications. Briefly, assays were performed in 96-well plates using 0.025 ml of each OPK component; P. aeruginosa strains; diluted baby rabbit serum; differentiated HL-60 cells; and monoclonal antibody. In some OPK assays, luminescent P. aeruginosa strains, which were constructed as described (Choi, K. H., et al., Nat Methods 2, 443-448 (2005)), were used. Luminescent OPK assays were performed as described above but with determination of relative luciferase units (RLUs) using a Perkin Elmer ENVISION Multilabel plate reader (Perkin Elmer).
# This example describes two series of experiments evaluating the ability of PMB-mAb conjugates to promote OPK of P. aeruginosa. In the first experiments (FIGS. 15A-B), conjugate-mediated OPK activity by human HL-60 neutrophil cell line in the presence of rabbit complement was evaluated using P. aeruginosa strains expressing bacterial luciferase as described in Example 2. R347 was used as a negative control in these experiments. […] In the second series of experiments, reduction in luminescence following 2 h incubation relative to control lacking mAb was used to determine % killing.
# [4] = tested on: P. aeruginosa strains PAO1, 33356, 6294, 6077, 6206; experiment: Acute pneumonia model, organ burden; format: in vivo, BALB/c mice
# Protocol: Antibodies or PBS were administered 24 hours before infection in each model. P. aeruginosa acute pneumonia, keratitis, and thermal injury infection models were performed as described (DiGiandomenico, A., et al., Proc Natl Acad Sci USA 104, 4624-4629 (2007)), with modifications. In the acute pneumonia model, BALB/c mice (The Jackson Laboratory) were infected with P. aeruginosa strains suspended in a 0.05 ml inoculum. In the thermal injury model, CF-1 mice (Charles River) received a 10% total body surface area burn with a metal brand heated to 92° C. for 10 seconds. Animals were infected subcutaneously with P. aeruginosa strain 6077 at the indicated dose. For organ burden experiments, acute pneumonia was induced in mice followed by harvesting of lungs, spleens, and kidneys 24 hours post-infection for determination of CFU.
# PAO1ΔpslA = experiment: OPK assay, Psl-deficient PAO1ΔpslA and complemented strain; format: cell-based, Pseudomonas aeruginosa; details: complemented PAO1ΔpslA in contrast to the mutant; FIGS. 3F, 3G
# Protocol: as §1, with “Elmer). […]” for “Elmer).”
# This example describes two series of experiments evaluating the ability of PMB-mAb conjugates to promote OPK of P. aeruginosa. In the first experiments (FIGS. 15A-B), conjugate-mediated OPK activity by human HL-60 neutrophil cell line in the presence of rabbit complement was evaluated using P. aeruginosa strains expressing bacterial luciferase as described in Example 2. […] In the second series of experiments, reduction in luminescence following 2 h incubation relative to control lacking mAb was used to determine % killing.
substance,measurement,setting,value
"Cam-003: human IgG1 anti-Psl monoclonal antibody, VH SEQ ID NO: 1 and VL SEQ ID NO: 2",inhibition of association of PAO1.lux to A549 cells,[1],most active at inhibiting P. aeruginosa cell attachment to A549 lung epithelial cells
same,reactivity of unlabelled mAb to captured Psl,[2],reacted
same,capture of Psl antigen by biosensor-bound antibody,[2]; antibody bound to aminopropylsilane biosensors,capable of capturing antigen
same,time within which all mice died,P. aeruginosa PAO10 LPS,≤ 18 h
same,OPK EC50,[3]; FIG. 9A,0.06 µg/mL
same,OPK activity (concentration dependent killing),"[3]; human IgG1 antibodies, differentiated HL-60 cells, baby rabbit serum, FIG. 2A",superior OPK activity
same,dissemination to the spleen and kidneys,"[4]; PAO1, 6294 and 6077, FIGS. 7A, 7C, 7D",marked effect in reducing dissemination to the spleen and kidneys
same,lung burden (viable CFU),"[4]; PAO1, 33356, 6294, 6077, 24 hours post-infection, FIGS. 7A-D",effective at reducing P. aeruginosa lung burden against all four strains tested
same,"lung burden, dose dependence","[4]; cytotoxic strain 6077, FIG. 7D",the low dose was as effective as the higher dose
same,ability to mediate opsonic killing,PAO1ΔpslA,restored

# From patent publication US10370436B2, “Anti-pseudomonas Psl binding molecules and uses thereof” (priority 2011, dated 2019)
